Data reported in patent publication US9993494B2, “Compositions and methods for treating fibrotic disease” (eFFECTOR Therapeutics, Inc., priority 2014, dated 2018).

Legend:
[1] = system: normal human lung fibroblasts; assay: Procollagen Type 1 C-Peptide (PIPC) EIA in culture media of TGFβ-treated fibroblasts; format: cell-based; settings: for % Renormalization Collagen: fibroblasts treated with TGFβ, procollagen ELISA
Method: (§1) Briefly, normal human lung fibroblasts (Lonza #CC-2512; cell passage numbers 2 through 5 were used for all experiments) were seeded (Day 0) and cultured in Dulbecco's modified Eagle medium (DMEM) supplemented with 10% fetal bovine serum (FBS), penicillin, streptomycin and glutamax (Invitrogen) at 37° C. in a humidified incubator with 5% CO2 overnight. On Day 1, cells were harvested, washed with phosphate buffered saline (PBS), and then incubated for 48 hours in fresh serum-free DMEM supplemented with penicillin, streptomycin, and glutamax.
(§2) After this 24 hour incubation, procollagen type 1 levels were measured by collecting culture media, centrifuging to pellet cellular debris, and stored at −80° C. Procollagen Type 1 C-Peptide (PIPC) was quantified using the (PIP) EIA kit (Clontech, Cat. No. MK101) according to manufacturer's instructions. The TGFβ-treated fibroblasts of this example were examined by ribosomal profiling (about 6×10^6 cells/10 cm plate) and western blot analysis (about 1×10^6 cells/well of a 6-well plate).
as §1, with “(Lonza;” for “(Lonza #CC-2512;”, “CO2 conditions” for “CO2”, “glutamax. On Day 3, cells were harvested, resuspended in fresh serum-free DMEM containing silvestrol (1, 5, 10, 75, 100, 500, or 1000 nM) and 10 ng/ml TGFβ, and cultured for 24 hours. Controls included untreated cells and cells treated with only TGFβ.” for “glutamax.”
as §2, with “kit (Clontech)” for “kit (Clontech, Cat. No. MK101)”, “example are” for “example were”
The levels of α-SMA and procollagen type 1, markers of fibroblast transdifferentiation into myofibroblasts and a surrogate for fibrotic disease progression, were measured after a 24 hour incubation of fibroblasts in the presence or absence of TGFβ sieIF4A1 or siCont. The knockdown efficiency was determined by quantitating the eIF4A mRNA level by qPCR (data not shown) and assessing the protein level by western analysis (see FIG. 11).

[2] = system: normal human lung fibroblasts; assay: Western blot of α-smooth muscle actin (α-SMA) in TGFβ-treated fibroblasts; format: cell-based; settings: for % Renormalization α-SMA: fibroblasts treated with TGFβ; for % Renormalization α-SMA / TGFβ-induced α-SMA protein level: western blot
Method: as §1, §2
(§3) TGFβ-dependent activation of the PI3K/Akt/mTOR and ERK pathways were also examined by western blot analysis (about 1×10^6 cells/well from a 6-well plate). Briefly, cells were washed with PBS and lysed in 1× cell lysis buffer (Cell Signaling Technology, Inc., Danvers, Mass.) for 15 minutes at 4° C. Lysates were briefly sonicated, clarified by centrifugation for 15 minutes at 14,000 rpm, and then supernatants were collected. Protein concentration in the soluble fraction was determined by BCA protein assay (Thermo Scientific, Rockford, Ill.). Samples of protein (20 μg) were resolved on 4-20% Bis-Tris gradient gel (Invitrogen, Carlsbad, Calif.) and transferred to nitrocellulose membrane. The resulting blots were blocked for 1 hour at room temperature with Odyssey blocking solution (LI-COR) and then incubated with primary antibodies at 4° C. overnight. The following day, each blot was washed three times for 10 minutes in TBST, and then incubated with goat anti-rabbit fluorescent conjugated secondary antibody (IRDye 800 CW at 1:20,000; LI-COR) for 1 hour at room temperature. The blots were washed and scanned, and then specific proteins were detected by using the LI-COR Odyssey infrared imager. The following antibodies were used at 1:1000 dilution: anti-α-actin (Sigma #A2547), anti-phospho-4EBP(Ser65), anti-phospho-rpS6(Ser235/236)(#4858), anti-phospho-ERK1/2(Thr202/Tyr204)(#4370), anti-phospho-p70S6K(Thr421/Ser424)(#9204), anti-phospho-pAKT(Ser473), anti-phospho-MNK(Thr197/202), and anti-β-actin (#4970). Unless otherwise indicated, the antibodies were from Cell Signaling Technology, Inc. (Danvers, Mass.).
as §1, with “(Lonza;” for “(Lonza #CC-2512;”, “CO2 conditions” for “CO2”, “glutamax. On Day 3, cells were harvested, resuspended in fresh serum-free DMEM containing silvestrol (1, 5, 10, 75, 100, 500, or 1000 nM) and 10 ng/ml TGFβ, and cultured for 24 hours. Controls included untreated cells and cells treated with only TGFβ.” for “glutamax.”
as §2, with “kit (Clontech)” for “kit (Clontech, Cat. No. MK101)”, “example are” for “example were”

[3] = system: AKT, 4EBP, S6K, and S6 of the mTOR pathway; assay: Western blot of TGFβ-dependent phosphorylation of PI3K/Akt/mTOR and ERK pathway proteins; format: cell-based, human; settings: PP242 0.625 μM, co-incubation with TGFβ, FIG. 2
Method: as §3, with “The following antibodies were used at 1:1000 dilution: anti-α-actin (Sigma #A2547), anti-phospho-4EBP(Ser65), anti-phospho-rpS6(Ser235/236)(#4858), anti-phospho-ERK1/2(Thr202/Tyr204)(#4370), anti-phospho-p70S6K(Thr421/Ser424)(#9204), anti-phospho-pAKT(Ser473), anti-phospho-MNK(Thr197/202), and anti-β-actin (#4970). Unless otherwise indicated, the antibodies were from Cell Signaling Technology, Inc. (Danvers, Mass.).” left out

| SMILES | % Renormalization Collagen ([1]; 24 hours) | % Renormalization α-SMA ([2]; 24 hours) | TGFβ-induced α-SMA protein level ([2]; 10 ng/ml TGFβ, 24 hours) | α-SMA level ([2]; PP242 0.625 μM, co-incubation with TGFβ, FIG. 2) | TGFβ-dependent increases in phosphorylation of AKT, 4EBP, S6K, and S6 [3] | EC50 ([1]; Homo sapiens, Fibroblast, 24 h, read-out: EC50 for blocking the TGFβ-induced increase in procollagen production) | extent of inhibition of procollagen at higher concentrations, of untreated TGFβ-transformed myofibroblasts ([1]; higher concentrations, saturable, 10 ng/ml TGFβ, 24 hours) | inhibition of procollagen relative to untreated, untransformed control fibroblasts ([1]; higher concentrations, 10 ng/ml TGFβ, 24 hours) | ratio of α-SMA to β-actin at higher silvestrol concentrations ([2]; 10 ng/ml TGFβ, 24 hours, FIG. 10) | EC50 ([2]; Homo sapiens, Fibroblast, 24 h, read-out: EC50 for reduction of the α-SMA protein level) |
| --- | --- | --- | --- | --- | --- | --- | --- | --- | --- | --- |
| Cc1cc(C2CCCCC2)n(O)c(=O)c1.NCCO [CPX, ciclopirox oloamine] | +++ (+++ = >60%) | +++ (+++ = >60%) |  |  |  |  |  |  |  |  |
| CC(C)n1nc(-c2cc3cc(O)ccc3[nH]2)c2c(N)ncnc21 [PP242] | +++ (+++ = >60%) | +++ (+++ = >60%) | reduction of the α-SMA protein level in a dose dependent manner | decrease in α-SMA to pretreatment levels | sufficient to abolish |  |  |  |  |  |
| COC(=O)[C@H]1[C@@H](O)[C@@]2(O)c3c(OC)cc(O[C@@H]4O[C@@H]([C@H](O)CO)CO[C@H]4OC)cc3O[C@@]2(c2ccc(OC)cc2)[C@@H]1c1ccccc1 [Silvestrol] | +++ (+++ = >60%) | +++ (+++ = >60%) | reduction of the α-SMA protein level in a dose dependent manner |  |  | ~12 nM | about 90% | about 80% | the same as in untransformed, untreated fibroblasts | ~11 nM |
| Cc1ccc(=O)n(-c2ccccc2)c1 [pirfenidone, 5-methyl-1-phenylpyridin-2-one] | +++ (+++ = >60%) | +++ (+++ = >60%) |  |  |  |  |  |  |  |  |
| CC(C=CC(=O)NO)=CC(C)C(=O)c1ccc(N(C)C)cc1 (stereo not shown) [TSA, 7-[4-(dimethylamino)phenyl]-N-hydroxy-4,6-dimethyl-7-oxohepta-2,4-dienamide] | +++ (+++ = >60%) | ++ (++ = 30-60%) |  |  |  |  |  |  |  |  |
